# Assay results as given in patent US20240270762A1, “PENICILLIN-BINDING PROTEIN INHIBITORS” (priority 2021, published 2024).
# Like-named read-outs stand apart in the source and are kept apart here.
# Tests used:
# N. gonorrhoeae WHO M = assay: Liquid broth MIC in Fastidious broth; details: Neisseria gonorrhoeae
# Experimental: (§1) Liquid broth-based assays were used for antibacterial testing of PBP inhibitors in Neisseria gonorrhoeae. Briefly, cryo-preserved bacterial cultures of clinical strains were streaked for isolation on Chocolate Agar (72 g/L (2×) GC Agar Base (BD #228950) and 2% (2×) Hemoglobin was autoclaved at 121° C. for 20 minutes to sterilize. Once cooled to ˜50° C. the 2×GC Agar Base and 2× Hemoglobin solutions are combined and 1% IsoVitaleX Enrichment (BD #211876) was added to the solution). Strains were incubated at 36° C. and 5% CO2 to allow growth of colonies, 24 hours before inoculum preparation. 2-fold serial dilutions of test compounds were conducted in a 96 well plate with a final volume of 75 μL per well at 2-fold the final desired concentration in Fastidious broth (Remel #R07664). For preparation of assay inoculum, a direct suspension was prepared by aseptically swabbing 10-15 colonies from agar plates into culture tubes containing 2 mL of fresh sterile saline. After the dilution plates were set up, direct suspensions were then diluted in a cuvette containing sterile saline and the optical density was measured at 600 nm. Inocula were diluted such that 75 μL of this culture in Fastidious broth results in a starting bacterial concentration of 5×10^5 CFU/mL when added to the dilution plates. The plates were incubated for ˜24 hours at 36° C. and 5% CO2.
# N. gonorrhoeae CDC-0197 = assay: Liquid broth MIC in Fastidious broth; details: Neisseria gonorrhoeae
# Experimental: ATCC 49226, FA1090, MS11, WHO G, WHO L, and WHO M produce wild type or wild-type like PBP2. WHO K, WHO X, WHO Z, WHO Q, and CDC-0197 produce mosaic PBP2. Liquid broth-based assays were used for antibacterial testing of PBP inhibitors in Neisseria gonorrhoeae. Briefly, cryo-preserved bacterial cultures of clinical strains were streaked for isolation on Chocolate Agar (72 g/L (2×) GC Agar Base (BD #228950) and 2% (2×) Hemoglobin was autoclaved at 121° C. for 20 minutes to sterilize. Once cooled to ˜50° C. the 2×GC Agar Base and 2× Hemoglobin solutions are combined and 1% IsoVitaleX Enrichment (BD #211876) was added to the solution). Strains were incubated at 36° C. and 5% CO2 to allow growth of colonies, 24 hours before inoculum preparation. 2-fold serial dilutions of test compounds were conducted in a 96 well plate with a final volume of 75 μL per well at 2-fold the final desired concentration in Fastidious broth (Remel #R07664). For preparation of assay inoculum, a direct suspension was prepared by aseptically swabbing 10-15 colonies from agar plates into culture tubes containing 2 mL of fresh sterile saline. After the dilution plates were set up, direct suspensions were then diluted in a cuvette containing sterile saline and the optical density was measured at 600 nm. Inocula were diluted such that 75 μL of this culture in Fastidious broth results in a starting bacterial concentration of 5×10^5 CFU/mL when added to the dilution plates. The plates were incubated for ˜24 hours at 36° C. and 5% CO2.
# A. baumannii CDC-0033 = assay: microbe, parasite or virus in culture; assay type: cell-based; details: Acinetobacter baumannii, CDC0033, read-out: MIC, A. baumannii CDC-0033
# [1] = target: T1, PBP1a from Acinetobacter baumannii (ATCC 19606) (Acinetobacter baumannii, UniProt A0ABX6CK30); assay: Bocillin-FL fluorescence polarization competition binding, A. baumannii PBP1a; details: fluorescence polarization competition binding assay using Bocillin-FL; read-out: A. baumannii PBP1a Potency
# T1 sequence (A0ABX6CK30 1-851): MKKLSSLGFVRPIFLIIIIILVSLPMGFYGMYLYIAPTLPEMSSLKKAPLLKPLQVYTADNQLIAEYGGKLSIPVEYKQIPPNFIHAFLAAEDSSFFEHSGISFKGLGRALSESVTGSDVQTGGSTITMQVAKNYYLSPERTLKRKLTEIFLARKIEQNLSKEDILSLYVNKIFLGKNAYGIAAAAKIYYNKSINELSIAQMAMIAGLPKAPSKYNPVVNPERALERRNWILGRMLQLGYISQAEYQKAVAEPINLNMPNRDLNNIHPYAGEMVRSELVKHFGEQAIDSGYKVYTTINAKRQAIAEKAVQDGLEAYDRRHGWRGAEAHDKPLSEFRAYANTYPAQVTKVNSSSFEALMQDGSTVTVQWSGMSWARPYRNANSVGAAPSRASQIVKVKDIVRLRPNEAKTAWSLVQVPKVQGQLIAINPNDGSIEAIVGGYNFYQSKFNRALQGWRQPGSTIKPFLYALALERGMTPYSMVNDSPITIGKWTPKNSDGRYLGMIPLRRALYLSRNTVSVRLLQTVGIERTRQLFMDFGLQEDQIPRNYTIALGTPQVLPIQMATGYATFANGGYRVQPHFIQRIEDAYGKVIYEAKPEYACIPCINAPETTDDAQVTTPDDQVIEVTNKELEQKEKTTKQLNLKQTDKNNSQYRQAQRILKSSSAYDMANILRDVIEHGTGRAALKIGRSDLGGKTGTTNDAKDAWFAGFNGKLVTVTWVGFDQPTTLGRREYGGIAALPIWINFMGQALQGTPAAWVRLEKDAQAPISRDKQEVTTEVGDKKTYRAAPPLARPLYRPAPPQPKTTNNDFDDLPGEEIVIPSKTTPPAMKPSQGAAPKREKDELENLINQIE
# In short: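 Purified PBPs pre-incubated with inhibitor (E. coli PBP3 1.5 μM, 30 min; P. aeruginosa PBP3 0.75 μM, A. baumannii PBP1a 1 μM and PBP3 0.2 μM, 15 min), then Bocillin-FL 0.1 μM (0.05 μM for PBP1a) added; FP read up to 60 min. EC50 = concentration halving bound Bocillin-FL.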
# A. baumannii ATCC 19606 = assay: microbe, parasite or virus in culture; assay type: cell-based; details: Acinetobacter baumannii, ATCC19606, read-out: MIC, A. baumannii ATCC 19606
# A. baumannii CDC-0083 = assay: microbe, parasite or virus in culture; assay type: cell-based; details: Acinetobacter baumannii, CDC0083, read-out: MIC, A. baumannii CDC-0083
# A. baumannii 1258916 = assay: microbe, parasite or virus in culture; assay type: cell-based, Acinetobacter baumannii; details: Acinetobacter baumannii, 1258916, read-out: MIC, A. baumannii 1258916
# N. gonorrhoeae WHO X = assay: Liquid broth MIC in Fastidious broth; details: Neisseria gonorrhoeae
# Experimental: as §1
# [2] = read-out: Minimum Inhibitory Concentration, WHO M
# [3] = CDC0197, read-out: Minimum Inhibitory Concentration, CDC-0197
# [4] = read-out: Minimum Inhibitory Concentration, WHO X
# [5] = read-out: Minimum Inhibitory Concentration (MIC), N. gonorrhoeae WHO M
# [6] = CDC0197, read-out: Minimum Inhibitory Concentration (MIC), N. gonorrhoeae CDC-0197
# [7] = read-out: Minimum Inhibitory Concentration (MIC), N. gonorrhoeae WHO X
Compound,MIC (N. gonorrhoeae WHO M; [2]) [µg/mL],MIC (N. gonorrhoeae CDC-0197; [3]) [µg/mL],MIC (A. baumannii CDC-0033) [µg/mL],IC50 [1] [µM],MIC (A. baumannii ATCC 19606) [µg/mL],MIC (A. baumannii CDC-0083) [µg/mL],MIC (A. baumannii 1258916) [µg/mL],MIC (N. gonorrhoeae WHO X; [4]) [µg/mL],MIC (N. gonorrhoeae WHO M; [5]) [µg/mL],MIC (N. gonorrhoeae CDC-0197; [6]) [µg/mL],MIC (N. gonorrhoeae WHO X; [7]) [µg/mL]
"O=C(NCCS(=O)(=O)N1CCN(C(=O)NC(C(=O)N[C@H]2Cc3ccc(F)c(C(=O)O)c3OB2O)c2cc(F)c(O)c(O)c2Cl)C1=O)c1ccccc1 (stereo partly drawn) [Example 260, (3R)-3-(2-(3-((2-benzamidoethyl)sulfonyl)-2-oxoimidazolidine-1-carboxamido)-2-(2-chloro-5-fluoro-3,4-dihydroxyphenyl)acetamido)-7-fluoro-2-hydroxy-3,4-dihydro-2H-benzo[e][1,2]oxaborinine-8-carboxylic acid]",16 to 32,16 to 32,2 to 4,> 250,< 1,< 1,< 1,> 64,–,–,–
"O=C(CN1CCN(C(=O)NC(C(=O)N[C@H]2Cc3ccc(F)c(C(=O)O)c3OB2O)c2cc(F)c(O)c(O)c2Cl)C(=O)C1=O)Nc1ccccc1 (stereo partly drawn) [Example 232, (3R)-3-(2-(2-chloro-5-fluoro-3,4-dihydroxyphenyl)-2-(2,3-dioxo-4-(2-oxo-2-(phenylamino)ethyl)piperazine-1-carboxamido)acetamido)-7-fluoro-2-hydroxy-3,4-dihydro-2H-benzo[e][1,2]oxaborinine-8-carboxylic acid]",–,–,32 to 64,> 250,2 to 4,> 128,2 to 4,–,4 to 8,> 64,> 64
"O=C(NCCN1CCN(C(=O)NC(C(=O)N[C@H]2Cc3ccc(F)c(C(=O)O)c3OB2O)c2cc(F)c(O)c(O)c2Cl)C1=O)c1cccnc1 (stereo partly drawn) [Example 246, (3R)-3-(2-(2-chloro-5-fluoro-3,4-dihydroxyphenyl)-2-(3-(2-(nicotinamido)ethyl)-2-oxoimidazolidine-1-carboxamido)acetamido)-7-fluoro-2-hydroxy-3,4-dihydro-2H-benzo[e][1,2]oxaborinine-8-carboxylic acid]",16 to 32,> 64,2 to 4,> 250,< 1,< 1,< 1,> 64,–,–,–
"O=C(NCCS(=O)(=O)N1CCN(C(=O)NC(C(=O)N[C@H]2Cc3ccc(F)c(C(=O)O)c3OB2O)c2cc(F)c(O)c(O)c2Cl)C1=O)c1cccc(O)c1 (stereo partly drawn) [Example 261, (3R)-3-(2-(2-chloro-5-fluoro-3,4-dihydroxyphenyl)-2-(3-((2-(3-hydroxybenzamido)ethyl)sulfonyl)-2-oxoimidazolidine-1-carboxamido)acetamido)-7-fluoro-2-hydroxy-3,4-dihydro-2H-benzo[e][1,2]oxaborinine-8-carboxylic acid]",4 to 8,16 to 32,2 to 4,> 250,< 1,< 1,< 1,> 64,–,–,–
"O=C(NCCCN1CCN(C(=O)N[C@@H](C(=O)N[C@H]2Cc3ccc(F)c(C(=O)O)c3OB2O)c2cc(F)c(O)c(O)c2Cl)C1=O)c1cccc(O)c1 [Example 255, (R)-3-((R)-2-(2-chloro-5-fluoro-3,4-dihydroxyphenyl)-2-(3-(3-(3-hydroxybenzamido)propyl)-2-oxoimidazolidine-1-carboxamido)acetamido)-7-fluoro-2-hydroxy-3,4-dihydro-2H-benzo[e][1,2]oxaborinine-8-carboxylic acid]",4 to 8,16 to 32,2 to 4,> 250,< 1,< 1,< 1,> 64,–,–,–
"O=C(O)c1c(F)ccc2c1OB(O)[C@@H](NC(=O)C(NC(=O)N1CCN(S(=O)(=O)CCCNC(=O)[C@@H]3CCCN3)C1=O)c1cc(F)c(O)c(O)c1Cl)C2 (stereo partly drawn) [Example 275, (3R)-3-(2-(2-chloro-5-fluoro-3,4-dihydroxyphenyl)-2-(2-oxo-3-((3-((S)-pyrrolidine-2-carboxamido)propyl)sulfonyl)imidazolidine-1-carboxamido)acetamido)-7-fluoro-2-hydroxy-3,4-dihydro-2H-benzo[e][1,2]oxaborinine-8-carboxylic acid]",16 to 32,16 to 32,8 to 16,> 250,< 1,2 to 4,< 1,> 64,–,–,–
"CN(CCN1CCN(C(=O)NC(C(=O)N[C@H]2Cc3ccc(F)c(C(=O)O)c3OB2O)c2cc(F)c(O)c(O)c2Cl)C(=O)C1=O)S(=O)(=O)c1ccc(C(N)=O)cc1 (stereo partly drawn) [Example 223, (3R)-3-(2-(4-(2-((4-carbamoyl-N-methylphenyl)sulfonamido)ethyl)-2,3-dioxopiperazine-1-carboxamido)-2-(2-chloro-5-fluoro-3,4-dihydroxyphenyl)acetamido)-7-fluoro-2-hydroxy-3,4-dihydro-2H-benzo[e][1,2]oxaborinine-8-carboxylic acid]",–,–,8 to 16,> 250,< 1,2 to 4,2 to 4,–,16 to 32,> 64,> 64
"O=C(NCCCN1CCN(C(=O)N[C@@H](C(=O)N[C@H]2Cc3ccc(F)c(C(=O)O)c3OB2O)c2cc(F)c(O)c(O)c2Cl)C1=O)Nc1cccc(O)c1 [Example 258, (R)-3-((R)-2-(2-chloro-5-fluoro-3,4-dihydroxyphenyl)-2-(3-(3-(3-(3-hydroxyphenyl)ureido)propyl)-2-oxoimidazolidine-1-carboxamido)acetamido)-7-fluoro-2-hydroxy-3,4-dihydro-2H-benzo[e][1,2]oxaborinine-8-carboxylic acid]",4 to 8,16 to 32,< 1,> 250,< 1,< 1,< 1,> 64,–,–,–
"O=C(NCCCN1CCN(C(=O)NC(C(=O)N[C@H]2Cc3ccc(F)c(C(=O)O)c3OB2O)c2cc(F)c(O)c(O)c2Cl)C(=O)C1=O)Nc1ccncc1 (stereo partly drawn) [Example 228, (3R)-3-(2-(2-chloro-5-fluoro-3,4-dihydroxyphenyl)-2-(2,3-dioxo-4-(3-(3-(pyridin-4-yl)ureido)propyl)piperazine-1-carboxamido)acetamido)-7-fluoro-2-hydroxy-3,4-dihydro-2H-benzo[e][1,2]oxaborinine-8-carboxylic acid]",–,–,2 to 4,> 250,< 1,< 1,< 1,–,16 to 32,> 64,> 64
